Results reported in PMC4588877, “Guanine nucleotide exchange factor 2 for Rab5 proteins coordinated with GLUP6/GEF regulates the intracellular transport of the proglutelin from the Golgi apparatus to the protein storage vacuole in rice endosperm” (Journal of Experimental Botany, 2015).

Key:
Rab5b = target: T1, Rab5b (Oryza sativa, UniProt Q10RN9); assay: GDP/GMP-PNP exchange, Trp intrinsic fluorescence (ex […] nm, em […] nm); format: binding; conditions: 1 µM GST-Rab preloaded with GDP; 0.1 mM GMP-PNP; GST-GLUP6/GEF or GST-Rab5-GEF2 0-1 µM as exchange factor; 20 mM Tris-HCl pH 8.0, 150 mM NaCl, 0.5 mM MgCl2
T1 construct: gene Os03g0151900; GST fusion (pGEX 4T-1), E. coli BL21 (DE3); tag kept
T1 sequence (Q10RN9 1-199): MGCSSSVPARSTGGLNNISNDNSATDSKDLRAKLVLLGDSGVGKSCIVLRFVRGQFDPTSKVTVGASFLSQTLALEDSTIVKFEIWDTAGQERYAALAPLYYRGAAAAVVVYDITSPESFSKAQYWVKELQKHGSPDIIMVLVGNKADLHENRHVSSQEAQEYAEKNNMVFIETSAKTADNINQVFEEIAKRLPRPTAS

GLUP4/Rab5a = target: T2, GLUP4/Rab5a (Oryza sativa, UniProt Q0ILQ6); assay: as above; format: binding; conditions: 1 µM GST-Rab preloaded with GDP; 0.1 mM GMP-PNP; GST-Rab5-GEF2 0-1 µM as exchange factor; 20 mM Tris-HCl pH 8.0, 150 mM NaCl, 0.5 mM MgCl2
T2 construct: GST fusion (pGEX 4T-1), E. coli BL21 (DE3); tag kept
T2 sequence (Q0ILQ6 1-203): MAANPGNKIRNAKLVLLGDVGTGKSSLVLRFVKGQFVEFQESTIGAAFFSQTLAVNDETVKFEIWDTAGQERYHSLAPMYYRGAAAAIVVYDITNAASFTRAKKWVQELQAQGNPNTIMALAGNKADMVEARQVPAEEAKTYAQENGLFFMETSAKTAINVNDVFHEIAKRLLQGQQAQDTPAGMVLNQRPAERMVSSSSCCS

Rab5c = target: T3, Rab5c (Oryza sativa, UniProt Q75HA2); assay: as above; format: binding; conditions: 1 µM GST-Rab preloaded with GDP; 0.1 mM GMP-PNP; GST-GLUP6/GEF or GST-Rab5-GEF2 0-1 µM as exchange factor; 20 mM Tris-HCl pH 8.0, 150 mM NaCl, 0.5 mM MgCl2
T3 construct: gene Os03g0666500; GST fusion (pGEX 4T-1), E. coli BL21 (DE3); tag kept
T3 sequence (Q75HA2 1-203): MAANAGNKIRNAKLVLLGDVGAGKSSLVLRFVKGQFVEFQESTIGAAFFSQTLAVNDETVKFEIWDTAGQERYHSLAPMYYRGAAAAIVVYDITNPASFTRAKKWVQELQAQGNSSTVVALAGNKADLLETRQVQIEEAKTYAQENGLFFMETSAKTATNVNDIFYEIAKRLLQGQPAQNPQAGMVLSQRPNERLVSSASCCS

GLUP4/Rab5a (rice) = GLUP4/Rab5a (rice) (UniProt Q0ILQ6); assay: SPR; BIACORE J; GLUP4/Rab5a immobilised on Sensor Chip CM5; Rab5-GEF2 or GLUP6/GEF (1.5, 3.5, 5, 6.5, 10.5 μM) applied for 120 s at 30 μl/min in 10 mM HEPES-NaOH pH 7.4, 0.15 M NaCl, 0.5 mM MgCl2, 10 mM GDP, 0.1% Triton X-100; apparent KD from association and dissociation curves

Compound	GDP/GMP-PNP exchange, Trp intrinsic fluorescence (ex 298 nm, em 340 nm) (Rab5b)	GDP/GMP-PNP exchange, Trp intrinsic fluorescence (ex 298 nm, em 340 nm) (GLUP4/Rab5a)	GDP/GMP-PNP exchange, Trp intrinsic fluorescence (ex 298 nm, em 340 nm) (Rab5c)	Kd (GLUP4/Rab5a (rice))
Nc1nc2c(ncn2[C@@H]2O[C@H](COP(=O)(O)OP(=O)(O)NP(=O)(O)O)[C@@H](O)[C@H]2O)c(=O)[nH]1 [GMP-PNP]	Rab5b and Rab5c were activated by GLUP6/GEF in a dose-dependent manner	Rab5-GEF2 activated GLUP4/Rab5a, the plant-specific Rab5b, and Rab5c in a dose-dependent manner	Rab5b and Rab5c were activated by GLUP6/GEF in a dose-dependent manner	–
GLUP6/GEF (natural protein)	–	–	–	2.1 µM
Rab5-GEF2 (natural protein)	–	–	–	1.7 µM
